EP0416393A1, “Peptidyl difluorodiol renin inhibitors” (ABBOTT LABORATORIES, priority 1989, dated 1991)
Each block holds one compound with its values, some of them ahead of it.

Key:
human renal renin = target: T1, human renal renin (Homo sapiens, UniProt P00797); experiment: Inhibition of human renal renin with human angiotensinogen substrate; angiotensin I formed measured by radioimmunoassay; type: biochemical; conditions: 37 degrees C, pH 6.0; read-out: IC₅₀
T1 construct: human renal renin, free from acid proteolytic activity; from tissue; host or cells: human kidney (concluded from the word 'renal')
T1 sequence (P00797 67-406): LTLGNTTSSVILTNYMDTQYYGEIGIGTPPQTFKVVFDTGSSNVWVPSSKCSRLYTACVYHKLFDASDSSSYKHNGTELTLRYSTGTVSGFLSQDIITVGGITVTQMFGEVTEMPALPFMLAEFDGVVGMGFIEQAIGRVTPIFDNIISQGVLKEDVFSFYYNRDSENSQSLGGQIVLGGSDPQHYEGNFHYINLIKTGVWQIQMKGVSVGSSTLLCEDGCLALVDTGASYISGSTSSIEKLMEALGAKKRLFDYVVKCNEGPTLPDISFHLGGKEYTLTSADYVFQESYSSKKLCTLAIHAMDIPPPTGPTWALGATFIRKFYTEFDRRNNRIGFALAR
Protocol: At the end of the incubation, the amount of angiotensin I formed is measured by radioimmunoassay and the molar concentration required to cause 50% inhibition, expressed as the IC₅₀ is calculated. […]

[1] = system: male cynomolgus monkeys (M. fascicularis); experiment: In vivo intraduodenal activity: blood pressure in salt-depleted, anesthetized monkeys; conditions: 1.0 mg/kg intraduodenal
Protocol: Intraduodenal activity for the resultant compound from Example 105 was determined at 1.0 mg/kg in male cynomolgus monkeys (M. fascicularis) weighing between 3 and 5 kg. The monkeys were fed a low-salt chow and fresh fruit diet and treated twice with furosemide (5 mg/kg, po), 1 week and 1 day before the experiment. Following this regimen renders the monkeys in a salt-depleted state, characterized by normal base-line blood pressures but elevated plasma renin activities. The monkeys were fasted overnight and studied under anesthesia on the day of the experiment (sodium pentobarbitol, 15 mg/kg bolus + 0.10 mg/kg/min maintenance iv infusion). A femoral artery was catherterized for the direct and continuous measurement of blood pressure (Grass Pressure Transducer Model P23dB and Graph Polygraph Model 7). The compound was tested for intraduodenal activity via a catheter placed directly into the proximal segment of the duodenum following a laparotomy. Each monkey received only one dose of compound.

Compound: CC(C)[C@@H](O)C(F)(F)[C@H](O)[C@H](CC1CCCCC1)NC(=O)[C@H](Cc1cscn1)NC(=O)[C@@H](CC(=O)N1CCN(C)CC1)Cc1ccccc1 [Example 93, 2(R)-2-Benzyl-3(4-methylpiperazine-1-ylcarbonyl)propionic acid amide of L-(4-thiazolyl)alamine-2(S) amino-1-cyclohexyl-4,4-difluoro-3(R),5(R)-dihydroxy-6-methylheptane]
IC50 (human renal renin): 1.5 nM

Compound: CC(C)[C@@H](O)C(F)(F)[C@H](O)[C@H](CC1CCCCC1)NC(=O)[C@H](Cc1cscn1)NC(=O)[C@@H](CC(=O)N(C)CCn1cccn1)Cc1ccccc1 [Example 105, (2R)-2-Benzyl-3-[(2-pyrazol-1-ylethyl)methylaminocarbonyl]propionic acid amide of L-(4-thiazolyl)alanine-2(S)-amino-1-cyclohexyl-4,4-difluoro-3(R),5(R)-dihydroxy-6-methylheptane]
IC50 (human renal renin): 0.35 nM
MBP (Mean blood pressure) ([1]; Monkey A, Time 0 min): 85 mm Hg
MBP (Mean blood pressure) ([1]; Monkey A, Time 5 min): 85 mm Hg
MBP (Mean blood pressure) ([1]; Monkey A, Time 10 min): 74 mm Hg
MBP (Mean blood pressure) ([1]; Monkey A, Time 15 min): 69 mm Hg
MBP (Mean blood pressure) ([1]; Monkey A, Time 20 min): 65 mm Hg
MBP (Mean blood pressure) ([1]; Monkey A, Time 25 min): 67 mm Hg
MBP (Mean blood pressure) ([1]; Monkey A, Time 30 min): 70 mm Hg
MBP (Mean blood pressure) ([1]; Monkey A, Time 35 min): 71 mm Hg
MBP (Mean blood pressure) ([1]; Monkey A, Time 40 min): 74 mm Hg
MBP (Mean blood pressure) ([1]; Monkey A, Time 45 min): 74 mm Hg
MBP (Mean blood pressure) ([1]; Monkey A, Time 50 min): 76 mm Hg
MBP (Mean blood pressure) ([1]; Monkey A, Time 55 min): 77 mm Hg
MBP (Mean blood pressure) ([1]; Monkey A, Time 60 min): 79 mm Hg
MBP (Mean blood pressure) ([1]; Monkey A, Time 65 min): 79 mm Hg
MBP (Mean blood pressure) ([1]; Monkey A, Time 70 min): 79 mm Hg
MBP (Mean blood pressure) ([1]; Monkey A, Time 75 min): 80 mm Hg
MBP (Mean blood pressure) ([1]; Monkey A, Time 80 min): 79 mm Hg
MBP (Mean blood pressure) ([1]; Monkey A, Time 85 min): 80 mm Hg
MBP (Mean blood pressure) ([1]; Monkey A, Time 90 min): 80 mm Hg
MBP (Mean blood pressure) ([1]; Monkey A, Time 95 min): 81 mm Hg
MBP (Mean blood pressure) ([1]; Monkey A, Time 100 min): 82 mm Hg
MBP (Mean blood pressure) ([1]; Monkey A, Time 105 min): 83 mm Hg
MBP (Mean blood pressure) ([1]; Monkey A, Time 109 min): 81 mm Hg
MBP (Mean blood pressure) ([1]; Monkey A, Time 114 min): 81 mm Hg
MBP (Mean blood pressure) ([1]; Monkey A, Time 119 min): 81 mm Hg
MBP (Mean blood pressure) ([1]; Monkey B, Time 0 min): 89 mm Hg
MBP (Mean blood pressure) ([1]; Monkey B, Time 5 min): 88 mm Hg
MBP (Mean blood pressure) ([1]; Monkey B, Time 10 min): 76 mm Hg
MBP (Mean blood pressure) ([1]; Monkey B, Time 15 min): 79 mm Hg
MBP (Mean blood pressure) ([1]; Monkey B, Time 20 min): 75 mm Hg
MBP (Mean blood pressure) ([1]; Monkey B, Time 25 min): 74 mm Hg
MBP (Mean blood pressure) ([1]; Monkey B, Time 30 min): 75 mm Hg
MBP (Mean blood pressure) ([1]; Monkey B, Time 35 min): 78 mm Hg
MBP (Mean blood pressure) ([1]; Monkey B, Time 40 min): 83 mm Hg
MBP (Mean blood pressure) ([1]; Monkey B, Time 44 min): 83 mm Hg
MBP (Mean blood pressure) ([1]; Monkey B, Time 49 min): 82 mm Hg
MBP (Mean blood pressure) ([1]; Monkey B, Time 54 min): 83 mm Hg
MBP (Mean blood pressure) ([1]; Monkey B, Time 59 min): 86 mm Hg
MBP (Mean blood pressure) ([1]; Monkey B, Time 64 min): 83 mm Hg
MBP (Mean blood pressure) ([1]; Monkey B, Time 69 min): 86 mm Hg
MBP (Mean blood pressure) ([1]; Monkey B, Time 74 min): 87 mm Hg
MBP (Mean blood pressure) ([1]; Monkey B, Time 79 min): 89 mm Hg
MBP (Mean blood pressure) ([1]; Monkey B, Time 84 min): 87 mm Hg
MBP (Mean blood pressure) ([1]; Monkey B, Time 89 min): 92 mm Hg
MBP (Mean blood pressure) ([1]; Monkey B, Time 94 min): 86 mm Hg
MBP (Mean blood pressure) ([1]; Monkey B, Time 99 min): 90 mm Hg
MBP (Mean blood pressure) ([1]; Monkey B, Time 104 min): 91 mm Hg
MBP (Mean blood pressure) ([1]; Monkey B, Time 109 min): 90 mm Hg
MBP (Mean blood pressure) ([1]; Monkey B, Time 114 min): 92 mm Hg
MBP (Mean blood pressure) ([1]; Monkey B, Time 119 min): 92 mm Hg

Compound: CC(C)C(O)C(F)(F)C(O)C(CC1CCCCC1)NC(=O)C(Cc1c[nH]cn1)NC(=O)C(=Cc1ccccc1)CC(=O)N1CCOCC1 [Example 87, (E)-2-((4-Morpholinylcarbonyl)methyl)cinnamic acid amide of His-2(S)-amino-1-cyclohexyl-4,4-difluoro-3(R),5(R)-dihydroxy-6-methylheptane]
IC50 (human renal renin): 5.2 nM

Compound: CC(O)C(F)(F)C(O)C(CC1CCCCC1)NC(=O)C(Cc1c[nH]cn1)NC(=O)C(Cc1ccccc1)NC(=O)OC(C)(C)C [Example 78, Boc-Phe-His amide of 2(S)-Amino-1-cyclohexyl-4,4-difluoro-3(R),5(R,S)-dihydroxyhexane]
IC50 (human renal renin): 2.5 nM

Compound: CC(C)CC(NC(=O)C(Cc1ccccc1)NC(=O)OC(C)(C)C)C(=O)NC(CC1CCCCC1)C(O)C(F)(F)C(O)C(C)C [Example 61, Boc-Phe-Leu amide of 2(S)-Amino-1-cyclohexyl-4,4-difluoro-3(R),5(S)-dihydroxy-6-methylheptane]
IC50 (human renal renin): 22 nM

Compound: CC(C)[C@@H](O)C(F)(F)[C@H](O)[C@H](CC1CCCCC1)NC(=O)[C@H](Cc1c[nH]cn1)NC(=O)[C@@H](CC(=O)N1CCOCC1)Cc1ccccc1 [Example 83, 2(R)-2-Benzyl-3-Morpholinocarbonylpropionic acid amide of His-2(S)-Amino-1-cyclohexyl-4,4-difluoro-3(R),5(R)-dihydroxy-6-methylheptane]
IC50 (human renal renin): 1.5 nM

More lines, in order of falling IC50 (human renal renin), values ahead:

IC50 (human renal renin): 1.2 nM
Compound: CC(C)[C@@H](O)C(F)(F)[C@H](O)[C@H](CC1CCCCC1)NC(=O)[C@H](Cc1c[nH]cn1)NC(=O)[C@H](Cc1ccccc1)NC(=O)OC(C)(C)C [Example 77, Boc-Phe-His-amide of 2(S)-Amino-1-cyclohexyl-4,4-difluoro-3(R),5(R)-dihydroxy-6-methylheptane]

IC50 (human renal renin): 1.2 nM
Compound: CC(C)C(O)C(F)(F)C(O)C(CC1CCCCC1)NC(=O)C(Cc1c[nH]cn1)NC(=O)C(CC(=O)N1CCOCC1)Cc1cccc2ccccc12 [Example 86, 2(R,S)-(4-morpholinylcarbonylmethyl)-3-(1′-naphthyl)-propionic acid amide of His-2(S)-amino-1-cyclohexyl-4,4-difluoro-3(R),5(R)-dihydroxy-6-methylheptane]

IC50 (human renal renin): 1.1 nM
Compound: Cbz((β,β-di-Me)-β-Ala)-Phe-His amide of 2(S)-Amino-1-cyclohexyl-4,4-difluoro-3(R),5(R)-dihydroxy-6-methylheptane [Example 79]

IC50 (human renal renin): 1 nM
Compound: CC(C)[C@@H](O)C(F)(F)[C@H](O)[C@H](CC1CCCCC1)NC(=O)C(Cc1cnc[nH]1)NC(=O)C(Cc1ccc(O)cc1)N(C)C(=O)CC(C)(C)NC(=O)OCc1ccccc1 (stereo partly drawn) [Example 80, Cbz((β,β-di-Me)-β-Ala)-(Me)Tyr-His amide of 2(S)-Amino-1-cyclohexyl-4,4-difluoro-3(R),5(R)-dihydroxy-6-methylheptane]

IC50 (human renal renin): 0.69 nM
Compound: CC(C)CC(NC(=O)C(Cc1ccccc1)NC(=O)OC(C)(C)C)C(=O)NC(CC1CCCCC1)C(=O)C(F)(F)C(=O)C(C)C [Example 98, Boc-Phe-Leu amide of 2(S)-Amino-1-cyclohexyl-4,4-difluoro-3,5-dioxo-6-methylheptane]

IC50 (human renal renin): 0.64 nM
Compound: CC(C)C[C@H](NC(=O)[C@H](Cc1ccccc1)NC(=O)OC(C)(C)C)C(=O)N[C@@H](CC1CCCCC1)[C@@H](O)C(F)(F)[C@H](O)C(C)C [Example 60, Boc-Phe-Leu amide of 2(S)-Amino-1-cyclohexyl-4,4-difluoro-3(R),5(R)dihydroxy-6-methylheptane]
